Results on 4 compounds are retold here after BindingDB's records for patent US20260049089 (Shanghai Apeiron Therapeutics Company, 2026).

T1 sequence (P01116 whole entry G12D): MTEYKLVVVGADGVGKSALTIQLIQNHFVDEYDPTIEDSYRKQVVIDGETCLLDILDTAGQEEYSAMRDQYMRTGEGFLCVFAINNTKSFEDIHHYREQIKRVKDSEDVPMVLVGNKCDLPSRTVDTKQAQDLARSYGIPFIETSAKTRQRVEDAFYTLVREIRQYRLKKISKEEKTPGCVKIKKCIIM

The first experiment deals with T1, GTPase KRas (G12D) (Homo sapiens, UniProt P01116, G12D). Kind of experiment: KRAS-GDP Protein Assay. The method, then:
6> Add 5 μL of KRAS solution prepared with Buffer 1 to each well of the high-signal control group and compound test wells. Add 5 μL of Buffer 1 to each well of the low-signal control group. The final concentration of KRAS in the reaction is 5 nM (initially 40 nM, optimized to 5 nM). Incubate at room temperature for 1 hour.7> Add 5 μL of a solution containing SOS1 and GTP prepared with Buffer 2 to each well. Final concentrations in the reaction: 50 nM for SOS1 (initially 250 nM) and 125 μM for GTP (initially 625 μM). Incubate at room temperature for 1 hour.8> Add 5 μL of a solution containing cRAF and AlphaLISA Nickel Acceptor beads prepared with Buffer 2 to each well. Final concentrations in the reaction: 50 nM for cRAF and 20 μg/mL for AlphaLISA Nickel Acceptor beads. Incubate at room temperature for 1 hour.9> Add 5 μL of an AlphaScreen GSH Donor beads solution prepared with Buffer 2 to each well. Final concentration in the reaction: 20 μg/mL. Incubate at room temperature for 1 hour.10> Measure the signal values using an EnVision plate reader. Excitation wavelength: 680 nm, Emission wavelength: 615 nm.
One may read the IC50 as the midpoint of a concentration-inhibition curve. As for `Oc1cc2c3c(c(F)ccc3c1)CCCCNc1cc3c(N4CC5CCC(C4)N5)nc(OC[C@@]45CCCN4C[C@H](F)C5)nc3c(F)c1-2` [US20260049089, Example 2], inhibition was half-maximal at 2.87 nM (IC50).
Same read-out and setting: the figure for `CN1CCCCc2c(F)ccc3cc(O)cc(c23)-c2c1cc1c(N3CC4CCC(C3)N4)nc(OC[C@@]34CCCN3C[C@H](F)C4)nc1c2F` [US20260049089, Example 3] is 2.31 nM; for `O=C1CCCCc2c(F)ccc3cc(O)cc(c23)-c2c(cc3c(N4CC5CCC(C4)N5)nc(OC[C@@]45CCCN4C[C@H](F)C5)nc3c2F)N1` [US20260049089, Example 4] it is 2.2 nM; for `Oc1cc2c3c(c(F)ccc3c1)CCCCCNc1cc3c(N4CC5CCC(C4)N5)nc(OC[C@@]45CCCN4C[C@H](F)C5)nc3c(F)c1-2` [US20260049089, Example 5] it is 2.06 nM.

The target in a further experiment is T1, GTPase KRas (G12D). Kind of experiment: KRAS-GTP Protein Assay. The method, then:
6> Mix the prepared protein solution with the SOS1-GTP solution (at the same concentration as used for the GDP protein assay) in a 1:1 volume ratio. Pre-incubate the mixture at room temperature for 1 hour.7> Add 10 μL of the mixture from Step I to each well of the high-signal control group and compound test wells. For the low-signal control group, add 5 μL of Buffer 1 and 5 μL of the SOS1-GTP mixture to each well. Incubate at room temperature for 1 hour.8> Add 5 μL of a solution containing cRAF and AlphaLISA Nickel Acceptor beads prepared with Buffer 2 to each well. Final concentrations in the reaction: 50 nM for cRAF and 20 μg/mL for AlphaLISA Nickel Acceptor beads. Incubate at room temperature for 1 hour.9> Add 5 μL of an AlphaScreen GSH Donor beads solution prepared with Buffer 2 to each well. Final concentration in the reaction: 20 μg/mL. Incubate at room temperature for 1 hour.10> Measure the signal values using an EnVision plate reader. Excitation wavelength: 680 nm, Emission wavelength: 615 nm.
Take `Oc1cc2c3c(c(F)ccc3c1)CCCCNc1cc3c(N4CC5CCC(C4)N5)nc(OC[C@@]45CCCN4C[C@H](F)C5)nc3c(F)c1-2` [US20260049089, Example 2]: it took 3.23 nM to reach half-maximal inhibition (IC50).
As to `CN1CCCCc2c(F)ccc3cc(O)cc(c23)-c2c1cc1c(N3CC4CCC(C3)N4)nc(OC[C@@]34CCCN3C[C@H](F)C4)nc1c2F` [US20260049089, Example 3], half-maximal inhibition (IC50) was put at 3.24 nM.
In turn, `O=C1CCCCc2c(F)ccc3cc(O)cc(c23)-c2c(cc3c(N4CC5CCC(C4)N5)nc(OC[C@@]45CCCN4C[C@H](F)C5)nc3c2F)N1` [US20260049089, Example 4] yielded an IC50 of 3.5 nM.
The compound `Oc1cc2c3c(c(F)ccc3c1)CCCCCNc1cc3c(N4CC5CCC(C4)N5)nc(OC[C@@]45CCCN4C[C@H](F)C5)nc3c(F)c1-2` [US20260049089, Example 5] had an IC50 of 2.63 nM.

A further experiment concerns the target T1, GTPase KRas (G12D). Kind of experiment: KRAS-GCP Protein Assay. The method, then:
6> Add 5 μL of KRAS solution prepared with Buffer 1 to each well of the high-signal control group and compound test wells; […]. The final concentration of KRAS in the reaction is 5 nM. Incubate at room temperature for 1 hour.7> Add 5 μL of Buffer 2 to each well. Incubate at room temperature for 1 hour.8> Add 5 μL of a solution containing cRAF and AlphaLISA Nickel Acceptor beads prepared with Buffer 2 to each well. Final concentrations in the reaction: 50 nM for cRAF and 20 μg/mL for AlphaLISA Nickel Acceptor beads. Incubate at room temperature for 1 hour.9> Add 5 μL of an AlphaScreen GSH Donor beads solution prepared with Buffer 2 to each well. Final concentration in the reaction: 20 μg/mL. Incubate at room temperature for 1 hour.10> Measure the signal values using an EnVision plate reader.
In turn, `Oc1cc2c3c(c(F)ccc3c1)CCCCNc1cc3c(N4CC5CCC(C4)N5)nc(OC[C@@]45CCCN4C[C@H](F)C5)nc3c(F)c1-2` [US20260049089, Example 2] returned an IC50 above 1000 nM.
Still for that read-out and setting: the figure for `CN1CCCCc2c(F)ccc3cc(O)cc(c23)-c2c1cc1c(N3CC4CCC(C3)N4)nc(OC[C@@]34CCCN3C[C@H](F)C4)nc1c2F` [US20260049089, Example 3] is above 1000 nM.
Still for that read-out and setting: for `O=C1CCCCc2c(F)ccc3cc(O)cc(c23)-c2c(cc3c(N4CC5CCC(C4)N5)nc(OC[C@@]45CCCN4C[C@H](F)C5)nc3c2F)N1` [US20260049089, Example 4] the value was 94.4 nM.
Still for that read-out and setting: the figure for `Oc1cc2c3c(c(F)ccc3c1)CCCCCNc1cc3c(N4CC5CCC(C4)N5)nc(OC[C@@]45CCCN4C[C@H](F)C5)nc3c(F)c1-2` [US20260049089, Example 5] is 232 nM.
